Reference: patent publication US7998995B2 (Exelixis Patent Company LLC, priority 2006, dated 2011)

Tested on: T1, LXR
T1 construct: fused on or other part: GST fused to the LBD in the FRET assay
Experiment: Measured EC50 or IC50 for LXR (LXRα and/or LXRβ; assay and subtype not given)
Settings: IC50 or EC50 class, subtype not specified
Experimental: Measured EC50 or IC50 for LXR, and FXR for Compounds of the Invention
LXR and FXR activities for various compounds of the invention are presented in the following table; those compounds with EC50 or IC50 values <10 μM for at least one of LXRα, LXRβ or FXR are considered to be active. In the following Table, IC50 or EC50 data is represented as follows: A<1 μM, B=1-10 μm, and C>10 μM.

Compound | EC50
CCOC(=O)c1cc2cc(OCc3cc(C(F)(F)F)nn3-c3ccccc3Cl)ccc2[nH]1 [Example 38, ethyl 5-({[1-(2-chlorophenyl)-3-(trifluoromethyl)-1H-pyrazol-5-yl]methyl}oxy)-1H-indole-2-carboxylate] | > 10000 nM
Cc1coc(-c2cn(-c3ccc(-c4cccc(S(C)(=O)=O)c4)cc3)c(-c3ccccc3C(F)(F)F)n2)n1 [Example 1026, methyl-2-(1-(3′-(methylsulfonyl)biphenyl-4-yl)-2-(2-(trifluoromethyl)phenyl)-1H-imidazol-4-yl)oxazole] | < 1000 nM
O=C(OCc1ccccc1)c1ccc(OCc2cc(C(F)(F)F)nn2-c2ccccc2Cl)cc1 [Example 7, phenylmethyl 4-({[1-(2-chlorophenyl)-3-(trifluoromethyl)-1H-pyrazol-5-yl]methyl}oxy)benzoate] | > 10000 nM
O=C(NCc1cccc(Cl)c1)c1cc(C(F)(F)F)nn1-c1cc(Cl)ccc1Cl [Example 102, N-[(3-chlorophenyl)methyl]-1-(2,5-dichlorophenyl)-3-(trifluoromethyl)-1H-pyrazole-5-carboxamide] | > 10000 nM
CS(=O)(=O)c1cccc(-c2ccc(-n3cc(C4=NCCN4)nc3-c3c(Cl)cccc3Cl)c(Cl)c2)c1 [Example 941, 1′-[3-chloro-3′-(methylsulfonyl)biphenyl-4-yl]-2′-(2,6-dichlorophenyl)-4,5-dihydro-1H,1′H-2,4′-biimidazole] | 1000 to 10000 nM
CS(=O)(=O)c1cccc(-c2ccc(-n3cc(-c4ccsc4)nc3-c3ccccc3C(F)(F)F)cc2)c1 [Example 996, 1-(3′-(methylsulfonyl)biphenyl-4-yl)-4-(thiophen-3-yl)-2-(2-(trifluoromethyl)phenyl)-1H-imidazole] | < 1000 nM
CC1(C)COC(c2cn(-c3ccc(-c4cccc(S(C)(=O)=O)c4)cc3)c(-c3c(Cl)cccc3Cl)n2)=N1 [Example 939, 2-{2-(2,6-dichlorophenyl)-1-[3′-(methylsulfonyl)biphenyl-4-yl]-1H-imidazol-4-yl}-4,4-dimethyl-4,5-dihydro-1,3-oxazole] | < 1000 nM
CC(C)(C)OC(=O)N1CCC[C@@H]1c1cn(-c2ccc(-c3cccc(S(C)(=O)=O)c3)cc2)c(-c2ccccc2C(F)(F)F)n1 [Example 1017, (R)-tert-butyl 2-(1-(3′-(methylsulfonyl)biphenyl-4-yl)-2-(2-(trifluoromethyl)phenyl)-1H-imidazol-4-yl)pyrrolidine-1-carboxylate] | < 1000 nM
Cc1csc(-c2cn(-c3ccc(-c4cccc(S(C)(=O)=O)c4)cc3)c(-c3c(Cl)cccc3Cl)n2)n1 [Example 1013, 2-(2-(2,6-dichlorophenyl)-1-(3′-(methylsulfonyl)biphenyl-4-yl)-1H-imidazol-4-yl)-4-methylthiazole] | < 1000 nM
CS(=O)(=O)c1cccc(-c2ccc(-n3cc([C@H]4CCCN4)nc3-c3ccccc3C(F)(F)F)cc2)c1 [Example 1016, 1-(3′-(methylsulfonyl)biphenyl-4-yl)-4-((R)-pyrrolidin-2-yl)-2-(2-(trifluoromethyl)phenyl)-1H-imidazole] | < 1000 nM
CS(=O)(=O)c1cccc(NC(=O)c2cc(C(F)(F)F)nn2-c2ccccc2Cl)c1 [Example 611, 1-(2-chlorophenyl)-N-[3-(methylsulfonyl)phenyl]-3-(trifluoromethyl)-1H-pyrazole-5-carboxamide] | > 10000 nM

Continued, values first:

EC50 | Compound
< 1000 nM | Cc1noc(-c2cn(-c3ccc(-c4cccc(S(C)(=O)=O)c4)cc3Cl)c(-c3c(Cl)cccc3Cl)n2)n1 [Example 944, 5-{1-[3-chloro-3′-(methylsulfonyl)biphenyl-4-yl]-2-(2,6-dichlorophenyl)-1H-imidazol-4-yl}-3-methyl-1,2,4-oxadiazole]
< 1000 nM | Cn1oc(=S)nc1-c1cn(-c2ccc(-c3cccc(S(C)(=O)=O)c3)cc2)c(-c2ccccc2C(F)(F)F)n1 [Example 1036]
< 1000 nM | CN1CC(c2cn(-c3ccc(-c4cccc(S(C)(=O)=O)c4)cc3Cl)c(-c3ccccc3Cl)n2)CC1=O (stereo not shown) [Example 984, 4-[1-(3-Chloro-3′-methanesulfonyl-biphenyl-4-yl)-2-(2-chlorophenyl)-1-H-imidazol-4-yl]-1-methyl-pyrrolidin-2-one]
> 10000 nM | O=C(O)Cc1cccc(-c2ccc(OCc3cc(C(F)(F)F)nn3-c3ccccc3Cl)cc2)c1 [Example 93, [4′-({[1-(2-chlorophenyl)-3-(trifluoromethyl)-1H-pyrazol-5-yl]methyl}oxy)biphenyl-3-yl]acetic acid]
< 1000 nM | FC(F)(F)c1cc(COc2ccc(-n3cccc3)cc2)n(-c2c(Cl)cccc2Cl)n1 [Example 922, 1-(2,6-dichlorophenyl)-5-({[4-(1H-pyrrol-1-yl)phenyl]oxy}methyl)-3-(trifluoromethyl)-1H-pyrazole]
> 10000 nM | CC1(C)CN=C(c2cn(-c3ccc(-c4cccc(S(C)(=O)=O)c4)cc3)c(-c3c(Cl)cccc3Cl)n2)N1 [Example 943, 2′-(2,6-dichlorophenyl)-5,5-dimethyl-1′-[3′-(methysulfonyl)biphenyl-4-yl]-4,5-dihydro-1H,1′H-2,4′-biimidazole]
< 1000 nM | CS(=O)(=O)c1cccc(-c2ccc(-n3cc(-c4ccsc4)nc3-c3cccc(Cl)c3Cl)cc2)c1 [Example 992, 2-(2,3-dichlorophenyl)-1-(3′-(methylsulfonyl)biphenyl-4-yl)-4-(thiophen-3-yl)-1H-imidazole]
< 1000 nM | CS(=O)(=O)c1cccc(-c2ccc(-n3cc(C4(C#N)CCOCC4)nc3-c3ccccc3C(F)(F)F)cc2)c1 [Example 1031, 4-(1-(3′-methylsulfonyl)biphenyl-4-yl)-2-(2-(trifluoromethyl)phenyl-1H-imidazol-4-yl)tetrahydro-2H-pyran-4-carbonitrile]
< 1000 nM | CS(=O)(=O)c1cccc(-c2ccc(-n3cc(N4CCCC4=O)nc3-c3c(Cl)cccc3Cl)cc2)c1 [Example 1005, 1-{2-(2,6-dichlorophenyl)-1-[3′-(methylsulfonyl)biphenyl-4-yl]-1H-imidazol-4-yl}pyrrolidin-2-one]
> 10000 nM | CS(=O)(=O)c1cccc(NC(=O)c2cc(C(F)(F)F)nn2-c2cc(Cl)ccc2Cl)c1 [Example 99, 1-(2,5-dichlorophenyl)-N-[3-(methylsulfonyl)phenyl]-3-(trifluoromethyl)-1H-pyrazole-5-carboxamide]
> 10000 nM | CS(=O)(=O)c1ccc(CNC(=O)c2cc(C(F)(F)F)nn2-c2cc(Cl)ccc2Cl)cc1 [Example 101, 1-(2,5-dichlorophenyl)-N-{[4-(methylsulfonyl)phenyl]methyl}-3-(trifluoromethyl)-1H-pyrazole-5-carboxamide]
> 10000 nM | O=C(NCc1cccc(C(F)(F)F)c1)c1cc(C(F)(F)F)nn1-c1cc(Cl)ccc1Cl [Example 100, 1-(2,5-dichlorophenyl)-3-(trifluoromethyl)-N-{[3-(trifluoromethyl)phenyl]methyl}-1H-pyrazole-5-carboxamide]
< 1000 nM | CS(=O)(=O)c1cccc(-c2ccc(-n3cc(-n4cnc(C#N)c4)nc3-c3ccccc3C(F)(F)F)cc2)c1 [Example 1008, 1′-(3′-(methylsulfonyl)biphenyl-4-yl)-2′-(2-(trifluoromethyl)phenyl)-1′H-1,4′-biimidazole-4-carbonitrile]
< 1000 nM | CC(=O)N1CCCC1c1cn(-c2ccc(-c3cccc(S(C)(=O)=O)c3)cc2)c(C(C)(C)c2ccccc2Cl)n1 (stereo not shown) [Example 978, 4-(1-acetylpyrrolidin-2-yl)-2-[1-(2-chlorophenyl)-1-methylethyl]-1-[3′-(methylsulfonyl)biphenyl-4-yl]-1H-imidazole]
